Patent US10633358B2, “T-type calcium channel inhibitor” (KINKI UNIVERSITY, priority 2013, dated 2020)
Where two headings read alike, the source gives them in different places.

Legend:
[1] = target: human T-type calcium channel (Homo sapiens, UniProt O95180); assay: cell-based
Procedure: A T-type calcium channel inhibitory action of sophoraflavanone G was measured by a whole-cell patch method using a human renal cell-derived cell line: […] cell forced to express a human T-type calcium channel.
In the whole-cell patch method, a barium current passing as an inward current was measured in a potential jump from −80 mV to −20 mV with the holding potential set to −80 mV using, as an external solution and an internal solution, ones having the compositions shown below. Here, for eliminating influences of a high-threshold-activated-type calcium channel, a value obtained by subtracting from a peak current a current 150 ms after the start of stimulation was used as a T-current for data analysis.
External Solution Composition
Aqueous solution containing the following: 97 mM N-methyl-D-glucamine (NMDG);
10 mM 4-(2-hydroxyethyl)-1-piperazine ethanesulfonic acid (HEPES);
40 mM tetraethylammonium chloride (TEA-Cl); and
Internal Solution Composition
Aqueous solution containing the following:
5 mM glycol ether diamine tetraacetic acid (EGTA)
In FIG. 1, the data are shown as a ratio (%) of a T-current at addition of a compound to a T-current at addition of a solvent (DMSO).
Except that sophoraflavanone G was replaced by 6-prenylnaringenin, the same procedure as in Example 1 was carried out to measure a T-type calcium channel inhibitory action of […].
Except that sophoraflavanone G was replaced by 8-prenylnaringenin, the same procedure as in Example 1 was carried out to measure a T-type calcium channel inhibitory action of […].
These […] values are values calculated by GraphPad Prism® (GraphPad Software, Inc.) using the results of Examples 1 to 3.

[2] = system: NaHS-induced hyperalgesia; assay: Action on NaHS-induced hyperalgesia, up-and-down method using a von Frey filament; format: in vivo; conditions: male ddY mouse; for Action on NaHS-induced hyperalgesia (in words): paw sole administration
Procedure: Into the paw sole of a male ddY mouse, 0.1 nmol/paw (volume: 10 μL/paw) of NaHS (sodium hydrogen sulfide) was administered alone, […], and an action of sophoraflavanone G on NaHS-induced hyperalgesia was measured by an up-and-down method using a von Frey filament.
Here, NaHS (sodium hydrogen sulfide) is used as a H2S donor. H2S is a hyperalgesia-inducing substance which is involved in information transmission of pain through a Cav3.2 T-type calcium channel (see Kawabata A. et al. Hydrogen sulfide as a novel nociceptive messenger. Pain. 2007 November; 132(1-2): 74-81. Epub 2007 Mar. 7.).
Except that 6-prenylnaringenin was used in place of sophoraflavanone G, the same procedure as in Example 4 was carried out to measure an action of 6-prenylnaringenin on NaHS-induced hyperalgesia.
Except that 8-prenylnaringenin was used in place of sophoraflavanone G, the same procedure as in Example 4 was carried out to measure an action of 8-prenylnaringenin on NaHS-induced hyperalgesia.

[3] = target: T1, L-type Ca2+ channel (Rattus norvegicus, UniProt P22002); assay: K50-induced contraction in a ring preparation of a rat aorta (endothelium removed); format: cell-based; conditions: for inhibition at 0.001 µM / inhibition at 0.003 µM / inhibition at 0.01 µM / inhibition at 0.03 µM / inhibition at 0.1 µM / inhibition at 0.3 µM / inhibition at 1 µM / inhibition at 3 µM: read-out: Inhibitory rate (%) on contraction by K50; for Selectivity T-type over L-type calcium channel (in words): conclusion from Examples 1-3 and 7-9; for Action on L-type calcium channel (in words): specimen pre-contracted by K50, up to 3 μM
T1 construct: A 1 mm-wide ring preparation was prepared from the thoracic aorta; from tissue; host or cells: thoracic aorta ring preparation (endothelium removed) of male Wistar rats
Procedure: For the experiment, 7 to 10 week-old male Wistar rats (Japan SLC, Inc., Shizuoka, Japan) were used. These experimental animals were bred in a chamber with a 12-hour light-dark cycle maintained at a temperature of about 24° C. while they were allowed to freely take tap water and a solid feed (Oriental Yeast Co., Ltd., Tokyo, Japan).
The rats were caused to hemorrhage to death by cutting the carotid artery under anesthesia, and the thoracic aorta was extracted. Connective tissues and fat were removed from the thoracic aorta in a cooled modified Kreb's liquid. A 1 mm-wide ring preparation was prepared from the thoracic aorta, and the lumen of the specimen was rubbed with rubber to remove the endothelium.
Two 100 μm tungsten wires were inserted into the lumen of the 1 mm-wide ring preparation, and the ring preparation was transferred to a liquid bath with a volume of 10 mL. […] The other ends of tungsten wires inserted into the lumen of the ring preparation were fixed to a tension transducer, and a change in tension of the specimen was isometrically measured. Signals from the tension transducer passed through a blood pressure amplifier to be recorded by a pen recorder. An initial stretching tension of 1 g was applied in a normal Kreb's liquid, and the specimen was equilibrated for 1 hour, and then caused to contract once by a 10^−6 M phenylephrine solution. This procedure was necessary for obtaining stable results. At the end of the experiment, verapamil (Vera) (10^−5 M) and papaverine (10^−4 M) were added to completely relax the specimen. The level at this time was set to 0 for all the measurements of a change in tension.
The reagents used were as follows. • Normal Kreb's liquid: NaCl (118 mM), KCl (4.7 mM), CaCl2 (2.5 mM), MgCl2 (1.2 mM), NaHCO3 (25 mM), KH2PO4 (1.2 mM) and glucose (10 mM) were diluted with H2O to 1 L, and ventilated for 10 minutes with a mixed gas of 95% of O2 and 5% of CO2, and 2.5 mL of a 1 M CaCl2 solution was then added. • Kreb's liquid (K50): NaCl (73.9 mM), KCl (48.8 mM), CaCl2 (2.5 mM), MgCl2 (1.2 mM), NaHCO3 (25 mM), KH2PO4 (1.2 mM) and glucose (10 mM) were diluted with H2O to 1 L, and ventilated for 10 minutes with a mixed gas of 95% of O2 and 5% of CO2, and 2.5 mL of a 1 M CaCl2 solution was then added. • Acetylcholine hydrochloride (Ach, manufactured by Sigma) • Verapamil hydrochloride (Vera, manufactured by Eisai Co., Ltd. (Tokyo)) • Papaverine hydrochloride (manufactured by Sigma) 5. Results
Thereafter, the specimen was washed three times with the Normal Kreb's liquid, and to the specimen caused to pre-contract by the Kreb's liquid (K50) containing 50 mM potassium ions, 1 μL of 1 μM of sophoraflavanone G (final concentration: 0.001 μM) dissolved in DMSO, 2 μL of 1 μM of the sophoraflavanone G (final concentration: 0.003 μM), 7 μL of 1 μM of the sophoraflavanone G (final concentration: 0.01 μM), 2 μL of 10 μM of the sophoraflavanone G (final concentration: 0.03 μM), 7 μL of 10 μM of the sophoraflavanone G (final concentration: 0.1 μM), 2 μL of 10 μM of the sophoraflavanone G (final concentration: 0.3 μM), 7 μL of 100 μM of the sophoraflavanone G (final concentration: 1 μM) and […] of the sophoraflavanone G (final concentration: 3 μM) were accumulatively added in a liquid bath containing 10 mL of the Kreb's liquid.
Except that 6-prenylnaringenin was used in place of sophoraflavanone G, the same procedure as in Example 7 was carried out to examine effects on an L-type Ca^2+ channel.
Except that 8-prenylnaringenin was used in place of sophoraflavanone G, the same procedure as in Example 7 was carried out to examine effects on an L-type Ca^2+ channel.

[4] = NaHS 0.1 nmol/paw sole + compound 0.1 nmol/paw sole
[5] = NaHS 0.1 nmol/paw sole + compound 1 nmol/paw sole
[6] = NaHS 0.1 nmol/paw sole + compound 10 nmol/paw sole
[7] = 0.001 μM final concentration, accumulatively added, rat aorta ring
[8] = 0.003 μM final concentration, accumulatively added, rat aorta ring
[9] = 0.01 μM final concentration, accumulatively added, rat aorta ring
[10] = 0.03 μM final concentration, accumulatively added, rat aorta ring
[11] = 0.1 μM final concentration, accumulatively added, rat aorta ring
[12] = 0.3 μM final concentration, accumulatively added, rat aorta ring
[13] = 1 μM final concentration, accumulatively added, rat aorta ring
[14] = 3 μM final concentration, accumulatively added, rat aorta ring
[15] = HEK293, read-out: Inhibition rate (%)

T1 sequence (P22002 whole entry): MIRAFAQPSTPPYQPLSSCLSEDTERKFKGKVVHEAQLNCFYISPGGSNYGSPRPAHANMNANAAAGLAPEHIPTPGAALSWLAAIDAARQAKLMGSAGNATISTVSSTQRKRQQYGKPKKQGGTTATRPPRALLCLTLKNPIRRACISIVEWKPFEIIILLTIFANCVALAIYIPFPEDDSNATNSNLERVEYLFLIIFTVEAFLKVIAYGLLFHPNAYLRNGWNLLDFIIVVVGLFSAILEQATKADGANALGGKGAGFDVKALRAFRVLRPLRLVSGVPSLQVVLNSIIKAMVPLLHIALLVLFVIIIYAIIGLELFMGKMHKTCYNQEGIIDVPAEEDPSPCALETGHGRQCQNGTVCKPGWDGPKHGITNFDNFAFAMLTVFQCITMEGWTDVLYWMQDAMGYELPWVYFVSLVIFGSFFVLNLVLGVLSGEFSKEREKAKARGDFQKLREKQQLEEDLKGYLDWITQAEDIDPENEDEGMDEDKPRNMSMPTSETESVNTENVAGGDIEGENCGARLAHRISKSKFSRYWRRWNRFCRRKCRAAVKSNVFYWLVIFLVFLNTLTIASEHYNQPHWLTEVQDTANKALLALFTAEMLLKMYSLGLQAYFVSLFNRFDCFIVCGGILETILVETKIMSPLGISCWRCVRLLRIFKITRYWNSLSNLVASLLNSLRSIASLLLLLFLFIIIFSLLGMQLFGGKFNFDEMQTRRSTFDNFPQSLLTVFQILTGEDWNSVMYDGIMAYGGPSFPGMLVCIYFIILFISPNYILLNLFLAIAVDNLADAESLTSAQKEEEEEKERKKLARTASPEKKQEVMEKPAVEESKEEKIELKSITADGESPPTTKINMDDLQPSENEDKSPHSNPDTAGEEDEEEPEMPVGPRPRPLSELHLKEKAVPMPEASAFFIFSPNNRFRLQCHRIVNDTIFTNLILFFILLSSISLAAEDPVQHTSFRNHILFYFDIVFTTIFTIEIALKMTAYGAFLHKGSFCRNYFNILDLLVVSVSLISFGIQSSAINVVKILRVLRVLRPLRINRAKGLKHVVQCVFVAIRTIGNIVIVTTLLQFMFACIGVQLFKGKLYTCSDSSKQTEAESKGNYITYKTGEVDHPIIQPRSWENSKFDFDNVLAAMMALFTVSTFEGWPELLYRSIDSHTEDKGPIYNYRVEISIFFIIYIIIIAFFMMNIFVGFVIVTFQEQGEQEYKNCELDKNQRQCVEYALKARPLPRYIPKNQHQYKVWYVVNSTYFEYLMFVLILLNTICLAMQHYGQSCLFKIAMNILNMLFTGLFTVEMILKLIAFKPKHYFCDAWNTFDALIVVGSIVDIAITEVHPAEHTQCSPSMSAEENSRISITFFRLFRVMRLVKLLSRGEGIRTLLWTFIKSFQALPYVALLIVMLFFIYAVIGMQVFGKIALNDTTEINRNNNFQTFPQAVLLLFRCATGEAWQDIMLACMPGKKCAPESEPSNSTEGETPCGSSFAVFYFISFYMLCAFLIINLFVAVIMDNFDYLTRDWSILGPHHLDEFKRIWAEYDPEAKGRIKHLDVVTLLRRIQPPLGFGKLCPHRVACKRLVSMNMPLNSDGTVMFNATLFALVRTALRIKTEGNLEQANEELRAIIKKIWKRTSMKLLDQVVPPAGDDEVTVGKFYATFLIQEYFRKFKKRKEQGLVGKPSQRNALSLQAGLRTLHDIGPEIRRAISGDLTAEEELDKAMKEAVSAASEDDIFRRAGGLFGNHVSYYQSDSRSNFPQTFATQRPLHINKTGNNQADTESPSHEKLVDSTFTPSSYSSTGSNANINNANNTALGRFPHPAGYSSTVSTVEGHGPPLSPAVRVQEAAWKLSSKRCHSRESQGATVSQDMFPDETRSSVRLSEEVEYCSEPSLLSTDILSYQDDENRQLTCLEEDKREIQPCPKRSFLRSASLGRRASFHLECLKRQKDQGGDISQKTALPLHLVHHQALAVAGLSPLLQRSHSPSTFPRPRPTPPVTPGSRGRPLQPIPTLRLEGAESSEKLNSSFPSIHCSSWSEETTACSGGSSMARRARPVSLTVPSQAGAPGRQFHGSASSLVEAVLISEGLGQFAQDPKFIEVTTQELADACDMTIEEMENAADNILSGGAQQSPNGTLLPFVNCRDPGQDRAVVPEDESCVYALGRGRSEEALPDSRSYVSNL
T1 sequence (P54290 25-944 partner limits assumed): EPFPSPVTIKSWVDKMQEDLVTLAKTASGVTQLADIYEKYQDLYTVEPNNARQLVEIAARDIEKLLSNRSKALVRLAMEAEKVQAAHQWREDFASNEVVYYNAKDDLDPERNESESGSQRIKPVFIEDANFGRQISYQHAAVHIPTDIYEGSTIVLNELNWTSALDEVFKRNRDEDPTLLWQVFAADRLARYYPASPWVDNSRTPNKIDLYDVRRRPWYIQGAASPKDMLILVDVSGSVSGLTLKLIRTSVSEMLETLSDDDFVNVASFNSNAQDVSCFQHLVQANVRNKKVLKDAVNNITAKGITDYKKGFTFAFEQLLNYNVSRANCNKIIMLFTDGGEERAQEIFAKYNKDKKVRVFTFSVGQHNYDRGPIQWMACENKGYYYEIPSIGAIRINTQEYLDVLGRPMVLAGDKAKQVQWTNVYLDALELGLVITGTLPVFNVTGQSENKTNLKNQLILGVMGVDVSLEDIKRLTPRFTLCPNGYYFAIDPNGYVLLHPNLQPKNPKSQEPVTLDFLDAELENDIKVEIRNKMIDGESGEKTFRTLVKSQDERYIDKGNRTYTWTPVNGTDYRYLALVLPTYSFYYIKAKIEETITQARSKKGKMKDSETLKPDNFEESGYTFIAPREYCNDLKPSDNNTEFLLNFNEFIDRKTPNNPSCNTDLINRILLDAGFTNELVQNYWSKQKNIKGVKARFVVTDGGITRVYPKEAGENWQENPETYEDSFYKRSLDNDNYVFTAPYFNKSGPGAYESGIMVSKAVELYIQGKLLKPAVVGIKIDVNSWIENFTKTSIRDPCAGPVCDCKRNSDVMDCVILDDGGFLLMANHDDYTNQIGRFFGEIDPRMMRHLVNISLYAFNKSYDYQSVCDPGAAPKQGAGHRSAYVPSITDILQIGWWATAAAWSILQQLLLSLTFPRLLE
T1 sequence (P54290 945-1091 partner limits assumed): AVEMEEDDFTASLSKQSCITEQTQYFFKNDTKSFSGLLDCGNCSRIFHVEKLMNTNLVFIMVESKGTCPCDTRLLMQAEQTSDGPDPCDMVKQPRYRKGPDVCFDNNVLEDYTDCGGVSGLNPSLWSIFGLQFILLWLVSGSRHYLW

Row | SMILES | Hyperalgesia threshold (g) Average value ± standard error [2, 4] [g] | Hyperalgesia threshold (g) Average value ± standard error [2, 5] [g] | Hyperalgesia threshold (g) Average value ± standard error [2, 6] [g] | Action on NaHS-induced hyperalgesia (in words) [2] | inhibition at 0.001 µM [3, 7] [%] | inhibition at 0.003 µM [3, 8] [%] | inhibition at 0.01 µM [3, 9] [%] | inhibition at 0.03 µM [3, 10] [%] | inhibition at 0.1 µM [3, 11] [%] | inhibition at 0.3 µM [3, 12] [%] | inhibition at 1 µM [3, 13] [%] | inhibition at 3 µM [3, 14] [%] | Selectivity T-type over L-type calcium channel (in words) [3] | Action on L-type calcium channel (in words) [3] | inhibition at 1 µM [1, 15] [%] | inhibition at 3 µM [1, 15] [%] | further results
1 | CC(C)=CCc1c(O)cc(O)c2c1O[C@H](c1ccc(O)cc1)CC2=O [8-Prenylnaringenin, (2S)-5,7-dihydroxy-2,3-dihydro-2-(4-hydroxyphenyl)-8-(3-methyl-2-butenyl)-4H-1-benzopyran-4-one] | 0.23 ± 0.04 | 0.41 ± 0.04 | 0.55 ± 0.05 | inhibits NaHS-induced hyperalgesia | 0 | 0 | 7.4 | 0 | 11.1 | 14.8 | 22.2 | 25.9 | T-type calcium channel-specific inhibitor | does not act on an L-type calcium channel | – | – | inhibition at 0.3 µM ([1]; HEK293, compound concentration 300 nM, T-current, HEK 293 cell expressing human T-type calcium channel, read-out: Inhibition rate (%)): 16.4%; inhibition at 1 µM ([1]; HEK293, compound concentration 1000 nM, T-current, HEK 293 cell expressing human T-type calcium channel, read-out: Inhibition rate (%)): 64.9%; inhibition at 3 µM ([1]; HEK293, compound concentration 3000 nM, T-current, HEK 293 cell expressing human T-type calcium channel, read-out: Inhibition rate (%)): 91%; inhibition at 10 µM ([1]; HEK293, compound concentration 10000 nM, T-current, HEK 293 cell expressing human T-type calcium channel, read-out: Inhibition rate (%)): 99.9%
2 | CC(C)=CCc1c(O)cc2c(c1O)C(=O)C[C@@H](c1ccc(O)cc1)O2 [6-Prenylnaringenin, (2S)-5,7-dihydroxy-2,3-dihydro-2-(4-hydroxyphenyl)-6-(3-methyl-2-butenyl)-4H-1-benzopyran-4-one] | 0.28 ± 0.07 | 0.31 ± 0.06 | 0.52 ± 0.09 | inhibits NaHS-induced hyperalgesia | – | – | – | – | – | – | – | – | T-type calcium channel-specific inhibitor | does not act on an L-type calcium channel | 82.7 | 99 | inhibition at 0.3 µM [1, 15]: 0%; inhibition at 0.001 µM [3]: 0%; inhibition at 0.003 µM [3]: 0%; inhibition at 0.01 µM [3]: 4.1%; inhibition at 0.03 µM [3]: 6.1%; inhibition at 0.1 µM [3]: 4.1%; inhibition at 0.3 µM [3]: 4.1%; inhibition at 1 µM [3]: 4.1%; inhibition at 3 µM [3]: 4.1%
3 | C=C(C)[C@H](CC=C(C)C)Cc1c(O)cc(O)c2c1O[C@H](c1ccc(O)cc1O)CC2=O [Sophoraflavanone G, (2S)-5,7-dihydroxy-2,3-dihydro-2-(2,4-dihydroxyphenyl)-8-[(R)-5-methyl-2-(1-methylethenyl)-4-hexenyl]-4H-1-benzopyran-4-one] | – | – | – | inhibits NaHS-induced hyperalgesia | 0 | 0 | 5.6 | 5.6 | 5.6 | 5.6 | 11.1 | 8.3 | T-type calcium channel-specific inhibitor | does not act on an L-type calcium channel | 61.1 | 97.7 | inhibition at 0.5 µM [1, 15]: 25.9%; Hyperalgesia threshold (g) Average value ± standard error ([2]; NaHS 0.1 nmol/paw sole + compound 1 pmol/paw sole): 0.11 ± 0.04 g; Hyperalgesia threshold (g) Average value ± standard error ([2]; NaHS 0.1 nmol/paw sole + compound 10 pmol/paw sole): 0.35 ± 0.07 g; Hyperalgesia threshold (g) Average value ± standard error ([2]; NaHS 0.1 nmol/paw sole + compound 30 pmol/paw sole): 0.34 ± 0.10 g
